One series deals with ZSF1-Ob rats. Put plainly: Interventional study in pre-HFpEF ZSF1-Ob rats (obesity, diabetes, hypertension, diastolic dysfunction). In kind it is in vivo, rat. The procedure: A hybrid rat that was a cross between a ZDF female and an SHHF male was utilized.
Briefly, we performed an interventional study in pre-HFpEF rats (15 weeks old) affected by obesity, diabetes, hypertension, diastolic dysfunction, and administered either vehicle, VASTIRAS™ (proANP31-67; VAS; 50 ng/Kg/day administered subcutaneously via Alzet osmotic pump), ENTRESTO™ (ENT; 68 mg/Kg/day administered orally via gavage), or VAS+ENT (VAS/ENT).

The subject of series [1] is prostaglandin E2 (PGE2) formation in the kidney. Conditions: Chiou & Vesely 1995; cited from earlier work.
Series [2] relates to ischemia-induced acute tubular necrosis and renal failure. The following applies: Recombinant proANP31-67; Clark et al. 2000; cited from earlier work.
Series [3] concerns patients with congestive heart failure. Conditions: Delacroix et al. 2016; cited from earlier work.
Series [4] relates to neprilysin and other endopeptidases. Conditions: cited from earlier work.
The conditions of series [5]: in vivo; cited from earlier work.
The mark [6] stands for this setting: ZSF1-Ob rats, autopsy, VAS 50 ng/Kg/day sc, ENT 68 mg/Kg/day oral, FIGS. 3-4.
The mark [7] stands for this setting: ZSF1-Ob rats, cardiac ultrasound.

Data on one substance can be found in patent US20220296680A1, “TREATMENT AND PREVENTION OF CARDIORENAL DAMAGE” (Oslo Universitetssykehus HF, priority 2021, published 2022).

As to “proANP31-67 (EVVPPQVLSEPNEEAGAALSPLPEVPPWTGEVSPAQR) [VAS]”, the Elevated blood pressure entry in the series on ZSF1-Ob rats (ZSF1-Ob rats treated from 15 weeks old, assessed at 25 weeks-old, VAS 50 ng/Kg/day sc, ENT 68 mg/Kg/day oral gavage, FIGS. 5-6) was “not affected”. Moreover, in the series with ZSF1-Ob rats (setting [6]), the “atria weight (AW)/TL” value is “tended to decrease”, the “body weight (BW)” value is reported as “tended to decrease”, the “heart weight (HW)/tibia length (TL)” value is given as “tended to decrease” and the “kidney weight (KW)/TL” value is recorded as “tended to decrease”. For the same substance, in the series on ZSF1-Ob rats (setting [7]), the cardiac output entry is given as “improved” and the “global longitudinal strain (GLS)” value was “tended to increase”. For the same substance, the renal vascularity result in the series on ZSF1-Ob rats (ZSF1-Ob rats, renal ultrasound, FIGS. 7-13) is “preserved”. In series [1], the “prostaglandin E2 (PGE2) formation in the kidney” value is listed as “stimulate”. Also, the “ischemia-induced acute tubular necrosis and renal failure” value in series [2] was “protect”. In addition, the “treatment for renal impairment in patients with congestive heart failure” value in series [3] was “safe and effective”. For the same substance, the “degradation by neprilysin and other endopeptidases” value in series [4] was “resistant”. Further, the excretion in urine entry in series [5] was “excreted largely intact”.
